In US20020115884A1, “Process for producing a hydrogenation product of an aromatic carboxylic acid” (priority 2000, published 2002):

Test: Solubility in water
Type: physicochemical

Solubility in water (Temperature 150° C.) | Solubility in water (Temperature 200° C.) | Compound
0.01 g/100 g-water | 0.04 g/100 g-water | O=C(O)c1ccc(-c2ccc(C(=O)O)cc2)cc1 [4,4′-biphenyldicarboxylic acid]
0.03 g/100 g-water | 0.21 g/100 g-water | O=C(O)c1ccc2cc(C(=O)O)ccc2c1 [2,6-naphthalenedicarboxylic acid]
0.25 g/100 g-water | 1.7 g/100 g-water | O=C(O)c1ccc(C(=O)O)cc1 [Terephthalic acid]
2.7 g/100 g-water | 24.2 g/100 g-water | O=C(O)c1cccc(C(=O)O)c1 [Isophthalic acid]
